Test results as given in PubChem BioAssay (NCI).
Values joined by “and” are separate entries in the source; they are usually repeats but may differ in a detail not shown here. Equal values may be shown once.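 The compound was tested at five concentrations on cells cultured in 96-well plates, with a 48-hour exposure period. The concentration for 50% growth inhibition is given as GI50. TGI is the concentration that stops growth completely.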

Key:
Assay in all cases: growth of human tumour cells (NCI), 48 h
[1] = tested on: PC-3 prostate
[2] = tested on: CAKI-1 renal
[3] = tested on: UACC-62 melanoma
[4] = tested on: IGROV1 ovarian
[5] = tested on: UACC-257 melanoma
[6] = tested on: SW-620 colon
[7] = tested on: EKVX NSCLC
[8] = tested on: NCI-H522 lung
[9] = tested on: MALME-3M melanoma
[10] = tested on: OVCAR-5 ovarian

| SMILES | GI50 [1] | TGI [1] | GI50 [2] [µM] | TGI [2] [µM] | GI50 [3] [µM] | TGI [3] | GI50 [4] [µM] | TGI [4] | GI50 [5] [µM] | TGI [5] [µM] | GI50 [6] [µM] | TGI [6] [µM] | GI50 [7] | TGI [7] [µM] | GI50 [8] [µM] | TGI [8] [µM] | GI50 [9] [µM] | TGI [9] [µM] | GI50 [10] | TGI [10] |
| --- | --- | --- | --- | --- | --- | --- | --- | --- | --- | --- | --- | --- | --- | --- | --- | --- | --- | --- | --- | --- |
| O=C(O)[C@@H]1CCCCN1Cc1cc2cc3c(cc2c2cc(OCc4ccccc4)ccc12)OCO3 | 16.4 µM | 38.3 µM | 3.6 | 33.7 | 1.49 | 3.08 µM | 6.53 | 21.4 µM | 3.4 | 12 | 1.84 | 13.8 | 4.42 µM | 25.3 | 4.89 | 18.4 | 2.8 | 9.41 | 19.2 µM | 44 µM |
| COc1cc2c(c(OC)c1OC)-c1c(cc3c(c1OC)OCO3)C1OC2C(C)C1C (stereo not drawn) (tested in a mixture with another compound) |  | > 100 µM |  | > 100 |  | > 100 µM |  | > 100 µM |  | > 100 |  | > 100 |  | > 100 |  | > 100 |  | > 100 |  | > 100 µM |
| Cc1ccc(C(=O)Nc2ccc(CN3CCN(C)CC3)c(C(F)(F)F)c2)cc1C#Cc1cnc(N)c2ccccc12 | 0.703 µM | 1.72 µM | 0.328 | 1.05 | 0.565 | 1.25 µM | 0.103 | 0.814 µM | 0.736 | 1.73 | 0.41 | 1.14 | 0.514 µM | 1.28 | 0.465 | 1.36 | 0.248 | 0.951 | 0.609 µM | 1.5 µM |
| C=C1C(=O)O[C@H]2[C@H]1CC/C(COC(=O)c1cc3ccccc3s1)=C\CC[C@@]1(C)O[C@@H]21 | 1.83 µM | 3.59 µM | 1.46 | 2.99 | 1.85 | 3.79 µM | 1.76 | 3.58 µM | 1.77 | 3.61 | 0.518 | 2.97 | 1.69 µM | 3.19 | 0.987 | 2.34 | 1.82 | 3.75 | 2.02 µM | 4.35 µM |
| C/C=C(\C)CC/C=C/CO[Si](C)(C)C(C)(C)C |  | > 100 µM |  | > 100 |  | > 100 µM |  | > 100 µM |  | > 100 |  | > 100 |  | > 100 |  | > 100 |  | > 100 |  | > 100 µM |
| O=C1/C(=C/c2ccc(O)cc2)CSc2ccc(Cl)cc21 | 13.1 µM | 53.8 µM | 21.2 | 52 | 12.2 | 26.2 µM | 7.58 | 51 µM | 19.1 | 38.9 | 1.99 | 4.04 | 16.4 µM | 32.4 | 3.25 | 10.7 | 16.6 | 38 | 19.8 µM | 40.4 µM |
| Cc1nc(-c2ccccc2)c(-c2ccccc2)s1 |  | 47.1 µM |  | 62.3 |  | 56.8 µM |  | 95.3 µM |  | 79.9 |  | 39.6 |  | 69.4 |  | 37.7 |  | 46.8 |  | > 100 µM |
| C=C(C)C1CCC2(C(=O)O)CCC3(C)C(CCC4C5(C)CCC(OC(=O)NCc6ccccc6)C(C)(C)C5CCC43C)C12 (stereo not drawn) | 1.2 µM | 95.7 µM | 1.63 | 15.7 | 1.9 | > 100 µM |  | > 100 µM | 2.3 | > 100 | 2.56 | > 100 | 1.71 µM | > 100 | 0.15 | 10.4 | 5.5 | 54.1 | 84.3 µM | > 100 µM |
| C/C(=N\Nc1ccc(Cl)cn1)c1ccccn1 | 0.0464 µM | > 100 µM | 0.0452 | 2.64 | 0.172 | > 100 µM | 0.0823 | 38.1 µM | 0.117 |  | 0.0622 | > 100 | 0.0516 µM | > 83.7 | 0.039 | 9.99 | 0.111 | 44.1 | 0.225 µM | > 100 µM |
| CC[C@H](C)[C@H]1O[C@]2(C=C[C@@H]1C)C[C@@H]1C[C@@H](C/C=C(\C)[C@@H](O[C@H]3C[C@H](OC)[C@@H](O[C@H]4C[C@H](OC)[C@@H](NC)[C@H](C)O4)[C@H](C)O3)[C@@H](C)/C=C/C=C3\CO[C@@H]4[C@H](O)C(C)=C[C@@H](C(=O)O1)[C@]34O)O2 | 2.78 µM | 11.7 µM | 1.89 | 5.02 | 1.99 | 4.28 µM | 3.06 | 12 µM | 2.03 | 4.21 | 2.14 | 4.74 | 2.13 µM | 6.51 | 1.75 | 3.73 | 1.85 | 3.69 | 3.41 µM | 14.9 µM |
| CSc1nc2cc(S(=O)(=O)N3CCCCC3)ccc2s1 |  | > 100 µM |  | > 100 |  | > 100 µM |  | > 100 µM |  | > 100 |  | > 100 |  | > 100 |  | > 100 |  | > 100 |  | > 100 µM |
| Cn1cnc([N+](=O)[O-])c1[Se]c1nc(N)nc2c1ncn2C1OC(CO)C(O)C1O (stereo not drawn) |  | > 100 µM |  | > 100 |  | > 100 µM |  | > 100 µM |  | > 100 |  | > 100 |  | > 100 |  | > 100 |  | > 100 |  | > 100 µM |
| CCN(CC)CCCC(C)Nc1cnc(C(=O)Nc2cccc3ccc(OC)nc23)cn1 (stereo not drawn) | 2.83 µM | 10.5 µM | 1.77 | 3.76 | 1.79 | 3.21 µM | 2.09 | 4.91 µM | 2.43 | 5.98 | 1.78 | 3.43 | 2.52 µM | 8.36 | 1.89 | 3.79 | 1.75 | 3.22 | 1.81 µM | 3.78 µM |
| NCCCn1c2c(c3ccc([N+](=O)[O-])cc3c1=O)C(=O)c1cc(Br)ccc1-2 | 0.101 µM and 0.0286 µM | 0.412 µM and 0.312 µM | 0.219 | 0.623 | 0.0195 | 0.0488 µM and 0.0256 µM | 0.0754 | 0.225 µM and 0.0325 µM | 0.456 |  | 0.00106 | 0.132 | 0.0757 µM and 0.0501 µM | 0.223 | 0.29 |  | 0.103 |  | 0.197 µM and 0.14 µM | 0.409 µM and 0.688 µM |
| CCCCN1CSC(=S)N(Cc2ccccc2)C1 |  | > 100 µM |  | > 100 |  | > 100 µM |  | > 100 µM |  | 60.2 |  | > 100 |  | 78.7 |  | > 71.8 |  | > 93.5 |  | > 100 µM |
| O=c1[nH]c(=O)n(C2OC(CO)C(O)C(O)C2O)cc1F (stereo not drawn) |  | > 100 µM |  | > 100 |  | > 100 µM |  | > 100 µM |  | > 100 |  | > 100 |  | > 100 |  | > 100 |  | > 100 |  | > 100 µM |
| COc1cc2c3c(n(C)c(=O)c2cc1OC)-c1cc2c(cc1/C3=C\CNCCCN)OCO2 | 0.272 µM | 3.16 µM | 0.848 | 16 | 0.214 | 1.12 µM | 0.284 |  | 0.907 | 2.76 | 0.222 | 3.94 | 2.85 µM | 12.2 | 0.348 |  | 0.144 | 0.591 | 1.28 µM | 18.9 µM |
| N#Cc1cccc(NC(=O)c2cc(-c3ccc(F)cc3F)ccc2O)c1 | 2.88 µM | 9.88 µM | 2.31 | 10.1 | 0.87 | 4.42 µM | 2.98 | 68.6 µM | 1.53 | 5.84 | 3.02 | 22.3 | 2.65 µM | 10.9 | 1.64 | 12.1 | 1.44 | 5.48 | 3.2 µM | 25.5 µM |
| COc1cc2c3c(n(CCNCCCNCCn4c5c(c6cc(OC)c(OC)cc6c4=O)C(=O)c4ccccc4-5)c(=O)c2cc1OC)-c1ccccc1C3=O | 0.0865 µM | 2.09 µM | > 100 | > 100 | 1.2 | 2.69 µM | 0.0523 | 9.57 µM | 73.3 | > 100 | 0.261 | 11.8 | 5.89 µM | 47.2 | < 0.0423 | 6.66 | 0.884 | 6.19 | 0.732 µM | 7.56 µM |
